pIC50: −log10 of the molar value.
Tested on: α-glucoside hydrolase
Assay: suppression of α-glucoside hydrolase function (statement in words)
Type: biochemical
Conditions: not given

| SMILES | action of suppressing the function of α-glucoside hydrolase |
| --- | --- |
| N[C@H]1C=C(CO)[C@@H](O)[C@H](O)[C@H]1O [valienamine] | possesses a highly valuable action of suppressing the function of α-glucoside hydrolase |

Biological target: maltase (porcine intestinal mucosa)
Assay: inhibitory activity against maltase, 0.05M maltose as substrate
Type: biochemical
Conditions: Table 2, read-out: IC50 (molar concentration required for 50% inhibition)
Protocol: (§1) When 0.05M maltose is used as a substrate, the inhibitory activity against maltase prepared from porcine intestinal mucosa is determined by measuring the amount of released D-glucose by use of glucose oxidase [Glucose B-Test Wako (a reagent for clinical diagnostic use for determining glucose, produced by Wako Pure Chemical Co. Japan)] to calculate the 50% inhibition concentration. The molar concentration required for 50% inhibition (IC50) of the α-glucosidase inhibitors represented by the formula [I], to inhibit activity of α-glucosidase (yeast), is shown in Table 1 and that to inhibit activity of maltase (porcine intestinal mucosa) is in Table 2.

| SMILES | pIC50 |
| --- | --- |
| OCC1=C[C@H](NC(CO)CO)[C@H](O)[C@@H](O)[C@@H]1O [drawing 49] | 4.85 |
| CC(Cc1ccccc1)N[C@H]1C=C(CO)[C@@H](O)[C@H](O)[C@H]1O (some centres unmarked) [drawing 46] | 5.62 |
| OCC1=C[C@H](NCCCc2ccccc2)[C@H](O)[C@@H](O)[C@@H]1O [drawing 39] | 4.70 |
| CC(C)=CCC/C(C)=C/CN[C@H]1C=C(CO)[C@@H](O)[C@H](O)[C@H]1O [drawing 48] | 5.28 |
| COc1ccccc1C(O)CN[C@H]1C=C(CO)[C@@H](O)[C@H](O)[C@H]1O (some centres unmarked) [drawing 47] | 5.51 |
| OCC1=C[C@H](NCCCCc2ccccc2)[C@H](O)[C@@H](O)[C@@H]1O [drawing 40] | 4.10 |
| OCC1=C[C@H](NCC(O)COc2ccccc2)[C@H](O)[C@@H](O)[C@@H]1O (some centres unmarked) | 4.62 |
| OCC1=C[C@H](NCc2ccc(O)c(O)c2)[C@H](O)[C@@H](O)[C@@H]1O | 5.09 |
| OCC1=C[C@H](NC(CO)[C@@H](O)[C@H](O)[C@@H](O)CO)[C@H](O)[C@@H](O)[C@@H]1O (some centres unmarked) [drawing 50] | 4.85 |
| OCC1=C[C@H](NCC(O)c2ccccc2)[C@H](O)[C@@H](O)[C@@H]1O (some centres unmarked) [drawing 41] | 5.49 |
| OCC1=C[C@H](NCCc2ccccc2)[C@H](O)[C@@H](O)[C@@H]1O [drawing 38] | 4.96 |
| OCC1=C[C@H](NC(CO)c2ccccc2)[C@H](O)[C@@H](O)[C@@H]1O (some centres unmarked) | 4.85 |
| OCC1=C[C@H](NCc2ccc(O)cc2)[C@H](O)[C@@H](O)[C@@H]1O [drawing 43] | 4.72 |
| OCC1=C[C@H](NC(CO)C(O)c2ccccc2)[C@H](O)[C@@H](O)[C@@H]1O (some centres unmarked) | 5.02 |
| OCC1=C[C@H](NCc2ccc(Br)cc2)[C@H](O)[C@@H](O)[C@@H]1O | 4.12 |

Biological target: T1, α-glucosidase (yeast, type I) (Saccharomyces cerevisiae, UniProt P53341)
T1 construct: purchased Sigma Chemicals, U.S.A
Assay: α-glucosidase inhibitory activity, p-nitrophenyl-α-D-glucopyranoside as substrate
Type: biochemical
Conditions: not given
Protocol: The inhibitory activity of the compounds of this invention against α-glucosidase (yeast, type I, produced by Sigma Chemicals, U.S.A.), when p-nitrophenyl-α-D-glucopyranoside is used as a substrate, is determined by adding 0.5 ml of a solution of an inhibitor of this invention in 0.02M phosphate buffer (pH 6.8) and 0.25 ml of 0.01M p-nitrophenyl-α-D-glucopyranoside in the same buffer to 0.25 ml of a solution of α-glucosidase in the same buffer (0.005 mg/ml), allowing the reaction to proceed at 37° C. for 15 minutes, then adding 3 ml of 0.1M aqueous sodium carbonate solution to terminate the reaction, and measuring the absorbance of the reaction solution at 400 nm. The 50% inhibition concentration of the inhibitor is calculated from the inhibition rates (%) which are determined with inhibitory substance samples of three to five different concentrations.
as §1

T1 sequence (P53341 whole entry): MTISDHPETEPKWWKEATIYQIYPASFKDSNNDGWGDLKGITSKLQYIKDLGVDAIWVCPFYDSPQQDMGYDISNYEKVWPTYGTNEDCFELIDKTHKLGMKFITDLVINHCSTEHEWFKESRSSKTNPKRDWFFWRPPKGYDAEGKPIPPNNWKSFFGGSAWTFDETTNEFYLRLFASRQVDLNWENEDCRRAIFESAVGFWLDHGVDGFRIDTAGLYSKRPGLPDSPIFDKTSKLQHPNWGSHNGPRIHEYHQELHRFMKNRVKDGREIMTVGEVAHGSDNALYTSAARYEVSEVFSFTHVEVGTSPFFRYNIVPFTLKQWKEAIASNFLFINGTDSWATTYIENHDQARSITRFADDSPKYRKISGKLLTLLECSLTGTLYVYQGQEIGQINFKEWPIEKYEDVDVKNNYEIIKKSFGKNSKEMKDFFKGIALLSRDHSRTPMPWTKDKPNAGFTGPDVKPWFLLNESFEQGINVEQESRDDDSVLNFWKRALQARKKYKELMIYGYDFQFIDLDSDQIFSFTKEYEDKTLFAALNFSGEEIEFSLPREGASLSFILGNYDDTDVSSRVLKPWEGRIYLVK

| SMILES | pIC50 |
| --- | --- |
| CC(Cc1ccccc1)N[C@H]1C=C(CO)[C@@H](O)[C@H](O)[C@H]1O (stereo partly drawn) [Example 21, N-(α-methylphenethyl)valienamine] | 6.89 |

Same assay, conditions: Table 1; α-glucosidase (yeast); pH 6.8, 37° C., 15 minutes; read-out: IC50 (molar concentration required for 50% inhibition)

| SMILES | pIC50 |
| --- | --- |
| OCC1=C[C@H](NC[C@H](O)[C@@H](O)[C@@H](O)[C@H](O)CO)[C@H](O)[C@@H](O)[C@@H]1O | 3.80 |
| OCC1=C[C@H](NCCCc2ccccc2)[C@H](O)[C@@H](O)[C@@H]1O [drawing 18] | 5.66 |
| CC(C)(C)c1cc(CN[C@H]2C=C(CO)[C@@H](O)[C@H](O)[C@H]2O)cc(C(C)(C)C)c1O | 4.92 |
| COc1ccc(CN[C@H]2C=C(CO)[C@@H](O)[C@H](O)[C@H]2O)cc1 | 4.74 |
| OCC1=C[C@H](NCCc2ccccc2)[C@H](O)[C@@H](O)[C@@H]1O [drawing 15] | 5.74 |
| OCC1=C[C@H](NCC2CCCCC2)[C@H](O)[C@@H](O)[C@@H]1O | 6.42 |
| CC(C)=CCC/C(C)=C/CN[C@H]1C=C(CO)[C@@H](O)[C@H](O)[C@H]1O [drawing 27] | 5.77 |
| OCC1=C[C@H](NCC(O)c2ccccc2)[C@H](O)[C@@H](O)[C@@H]1O (some centres unmarked) [drawing 16] | 5.96 |
| OCC1=C[C@H](NC[C@@H](O)[C@@H](O)[C@H](O)[C@H](O)CO)[C@H](O)[C@@H](O)[C@@H]1O | 4.00 |
| OCC1=C[C@H](NCCCOc2ccccc2)[C@H](O)[C@@H](O)[C@@H]1O | 5.96 |
| Cc1ccc(CN[C@H]2C=C(CO)[C@@H](O)[C@H](O)[C@H]2O)cc1 | 4.70 |
| OCC1=C[C@H](NC(CO)CO)[C@H](O)[C@@H](O)[C@@H]1O [drawing 29] | 4.18 |
| CC(N[C@H]1C=C(CO)[C@@H](O)[C@H](O)[C@H]1O)c1ccccc1 (some centres unmarked) | 4.89 |
| O=C(O)c1ccc(CN[C@H]2C=C(CO)[C@@H](O)[C@H](O)[C@H]2O)cc1 | 3.82 |
| COc1ccccc1C(O)CN[C@H]1C=C(CO)[C@@H](O)[C@H](O)[C@H]1O (some centres unmarked) [drawing 24] | 6.42 |
| OCC1=C[C@H](NC(CO)[C@@H](O)[C@H](O)[C@H](O)CO)[C@H](O)[C@@H](O)[C@@H]1O (some centres unmarked) | 3.96 |

| SMILES | pIC50 |
| --- | --- |
| OCC1=C[C@H](NCCCCc2ccccc2)[C@H](O)[C@@H](O)[C@@H]1O [drawing 20] | 6.01 |
| OCC1=C[C@H](NC[C@H](O)[C@@H](O)[C@H](O)[C@H](O)CO)[C@H](O)[C@@H](O)[C@@H]1O | 3.96 |
| OCC1=C[C@H](NCc2ccc(O)cc2)[C@H](O)[C@@H](O)[C@@H]1O [drawing 23] | 5.30 |
| OCC1=C[C@H](NC[C@H](O)[C@@H](O)[C@H](O)CO)[C@H](O)[C@@H](O)[C@@H]1O | 3.96 |
| CCCCN[C@H]1C=C(CO)[C@@H](O)[C@H](O)[C@H]1O [CH2 CH2 CH2 CH3, N-n-butylvalienamine] | 4.68 |
| OCC1=C[C@H](NCc2ccccc2)[C@H](O)[C@@H](O)[C@@H]1O | 5.04 |
| OCC1=C[C@H](NCC=Cc2ccccc2)[C@H](O)[C@@H](O)[C@@H]1O | 4.70 |
| OCC1=C[C@H](NC(CO)[C@@H](O)[C@H](O)[C@@H](O)CO)[C@H](O)[C@@H](O)[C@@H]1O (some centres unmarked) [drawing 37] | 3.89 |
| OCC1=C[C@H](NC[C@@H](O)[C@H](O)[C@H](O)CO)[C@H](O)[C@@H](O)[C@@H]1O | 3.92 |
| OCC1=C[C@H](NCCCCCc2ccccc2)[C@H](O)[C@@H](O)[C@@H]1O | 6.12 |
| OCC1=C[C@H](NC[C@H](O)[C@H](O)[C@H](O)CO)[C@H](O)[C@@H](O)[C@@H]1O | 4.05 |
| CC(CN[C@H]1C=C(CO)[C@@H](O)[C@H](O)[C@H]1O)c1ccccc1 (some centres unmarked) | 4.89 |
| OCC1=C[C@H](NCc2ccco2)[C@H](O)[C@@H](O)[C@@H]1O | 3.82 |
| OCC1=C[C@H](NCc2cccs2)[C@H](O)[C@@H](O)[C@@H]1O | 4.42 |
| OCC1=C[C@H](NCc2cccnc2)[C@H](O)[C@@H](O)[C@@H]1O | 4.25 |
| OCC1=C[C@H](NCC(c2ccccc2)c2ccccc2)[C@H](O)[C@@H](O)[C@@H]1O | 7.42 |

Biological target: T2, saccharase (porcine intestinal mucosa) (Sus scrofa, UniProt P56729)
T2 construct: saccharase prepared from porcine intestinal mucosa; from tissue; host or cells: porcine intestinal mucosa
Assay: inhibitory activity against saccharase
Type: biochemical
Conditions: not given
Protocol: The inhibitory activity against saccharase prepared from porcine intestinal mucosa is determined by a similar method to that against maltase in accordance with the method described in Acta. Chem. Scand., 12, 1997-2006 (1958).

T2 sequence (P56729 with tags, fused parts or gaps limits assumed): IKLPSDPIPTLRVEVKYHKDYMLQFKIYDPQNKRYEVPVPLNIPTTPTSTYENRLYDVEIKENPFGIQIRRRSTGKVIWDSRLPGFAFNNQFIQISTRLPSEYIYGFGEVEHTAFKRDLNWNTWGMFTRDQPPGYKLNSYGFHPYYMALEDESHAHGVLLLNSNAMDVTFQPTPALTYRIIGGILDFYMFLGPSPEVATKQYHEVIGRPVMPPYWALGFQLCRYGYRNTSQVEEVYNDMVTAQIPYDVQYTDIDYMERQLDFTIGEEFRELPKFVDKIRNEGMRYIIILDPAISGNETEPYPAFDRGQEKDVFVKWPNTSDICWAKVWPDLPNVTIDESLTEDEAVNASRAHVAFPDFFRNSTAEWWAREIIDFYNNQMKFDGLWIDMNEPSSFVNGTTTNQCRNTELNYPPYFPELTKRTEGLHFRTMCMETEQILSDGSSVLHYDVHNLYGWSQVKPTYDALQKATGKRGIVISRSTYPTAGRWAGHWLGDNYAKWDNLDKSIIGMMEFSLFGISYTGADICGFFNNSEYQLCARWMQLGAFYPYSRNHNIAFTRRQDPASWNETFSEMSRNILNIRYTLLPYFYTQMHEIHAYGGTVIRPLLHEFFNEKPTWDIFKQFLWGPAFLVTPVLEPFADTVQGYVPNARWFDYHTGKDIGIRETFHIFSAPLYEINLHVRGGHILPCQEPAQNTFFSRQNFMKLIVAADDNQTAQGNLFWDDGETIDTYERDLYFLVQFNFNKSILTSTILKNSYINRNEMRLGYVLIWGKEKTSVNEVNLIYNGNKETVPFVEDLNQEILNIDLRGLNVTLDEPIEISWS
T2 sequence (P56729 with tags, fused parts or gaps partner limits assumed): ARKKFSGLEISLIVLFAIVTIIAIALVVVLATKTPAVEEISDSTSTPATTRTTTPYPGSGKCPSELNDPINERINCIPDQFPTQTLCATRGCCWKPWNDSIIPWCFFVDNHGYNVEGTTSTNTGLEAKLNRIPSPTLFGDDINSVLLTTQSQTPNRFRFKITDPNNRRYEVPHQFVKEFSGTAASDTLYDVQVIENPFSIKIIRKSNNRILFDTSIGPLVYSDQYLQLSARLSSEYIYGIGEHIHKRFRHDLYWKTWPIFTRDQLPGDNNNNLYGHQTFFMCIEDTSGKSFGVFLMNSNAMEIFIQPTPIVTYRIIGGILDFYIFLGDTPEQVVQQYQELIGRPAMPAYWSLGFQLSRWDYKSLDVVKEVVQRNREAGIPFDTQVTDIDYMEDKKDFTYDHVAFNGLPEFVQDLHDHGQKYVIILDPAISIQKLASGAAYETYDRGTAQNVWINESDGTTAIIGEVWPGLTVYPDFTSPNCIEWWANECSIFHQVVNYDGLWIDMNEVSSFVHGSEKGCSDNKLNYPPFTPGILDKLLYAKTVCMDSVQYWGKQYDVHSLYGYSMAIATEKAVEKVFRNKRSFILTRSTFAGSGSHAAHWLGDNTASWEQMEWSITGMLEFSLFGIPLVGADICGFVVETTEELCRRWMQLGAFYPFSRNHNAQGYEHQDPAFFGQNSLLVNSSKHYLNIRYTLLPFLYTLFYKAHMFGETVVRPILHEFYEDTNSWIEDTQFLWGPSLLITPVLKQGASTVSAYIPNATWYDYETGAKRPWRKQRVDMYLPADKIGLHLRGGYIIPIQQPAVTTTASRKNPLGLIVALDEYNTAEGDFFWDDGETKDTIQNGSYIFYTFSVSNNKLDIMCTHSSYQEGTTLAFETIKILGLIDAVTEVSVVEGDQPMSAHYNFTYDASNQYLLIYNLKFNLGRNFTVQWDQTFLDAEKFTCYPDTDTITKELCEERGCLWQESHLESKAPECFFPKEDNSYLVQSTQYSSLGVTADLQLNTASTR

| SMILES | pIC50 |
| --- | --- |
| OCC1=C[C@H](NC2CCCCC2O)[C@H](O)[C@@H](O)[C@@H]1O (some centres unmarked) [Example 36, N-(2-hydroxycyclohexyl)valienamine] | 6.77 |

— patent publication US4486602A, “Valienamine derivatives, their production and use” (Takeda Chemical Industries, Ltd., priority 1980, dated 1984)
